Measurements from EP4501942A1, “PEPTIDOMIMETICS WITH ANTIVIRAL ACTIVITY” (priority 2023, dated 2025).
Where two headings read alike, the source gives them in different places.

Key:
SARS-CoV-2 M^pro protein = SARS-CoV-2 M^pro protein (Severe acute respiratory syndrome coronavirus 2, UniProt P0DTD1); test: biochemical; settings: for IC50: isolated SARS-CoV-2 M^pro, three separate experiments in duplicate, read-out: IC50, mean±SD
SARS-CoV-2 = test: microbe, parasite or virus in culture; assay type: cell-based; settings: Severe acute respiratory syndrome coronavirus 2, SARS-CoV-2, A549-ACE2 cells, MOI 0.005, 48 h; for EC50: read-out: EC50; for EC90: read-out: EC90
[1] = Cytotoxicity MTT assay in uninfected A549-ACE2 cells; assay type: cell-based; settings: human
Description: To evaluate the cytotoxicity profile of the compounds MTT assays were performed in A549-ACE2 cells. Uninfected cells were incubated with a range of compound concentrations (from 100 to 1 µM) for forty-eight hours, time at which the MTT substrate [3-(4,5-dimethylthiazol-2-yl)-2,5-diphenyltetrazolium bromide] was added and the formation of formazan precipitates was evaluated two hours later, using a colorimetric readout. Vehicle-treated (DMSO) cells were used as reference (100 %).

[2] = system: GFP-expressing recombinant vesicular stomatitis virus (VSV-GFP); test: microbe, parasite or virus in culture; assay type: cell-based; settings: A549-ACE2, 16 h
in vitro [3] = settings: human
in vitro [4] = test: in vitro

Row | Compound | IC50 (SARS-CoV-2 M^pro protein) | EC50 (SARS-CoV-2) | EC90 (SARS-CoV-2) | CC50 at 48 h [1] | EC50 [2] | EC90 [2] | CC50 (in vitro [3]) | CC50 (in vitro [4]) | inhibition at 10 µM (SARS-CoV-2 M^pro protein; read-out: % of inhibition at 10 µM)
1 | CC(C)[C@H](NC(=O)OC(C)(C)C)C(=O)N1C[C@@H](C)[C@@]1(Cc1ccccc1)C(=O)N[C@H](C#N)C[C@@H]1CCNC1=O [Example 6] | 0.07 ± 0.01 µM | 1 µM | 3 µM | > 100 µM | > 50 µM | > 50 µM | > 50 µM | > 50 µM | –
2 | C[C@@H]1CN(C(=O)[C@@H](NC(=O)OC(C)(C)C)C(C)(C)C)[C@]1(Cc1ccccc1)C(=O)N[C@H](C#N)C[C@@H]1CCNC1=O [Example 14] | 0.3 ± 0.03 µM | 1 µM | 3 µM | > 100 µM | > 50 µM | > 50 µM | > 50 µM | > 50 µM | –
3 | CCCC[C@@H](C#N)NC(=O)[C@]1(CC(C)C)[C@H](C)CN1C(=O)[C@@H](NC(=O)NC(C)(C)C)C(C)(C)C [Example 25, ^tBuNHCO-L-Tbg-(αS,β'R)-Azl-NH-[(1S)-1-cyano]pentane] | – | – | – | – | > 50 µM | > 50 µM | > 50 µM | > 50 µM | 0%
4 | C[C@@H]1CN(C(=O)[C@@H](NC(=O)OC(C)(C)C)C(C)(C)C)[C@]1(Cc1ccccc1)C(=O)N[C@H](C=O)C[C@@H]1CCNC1=O [Example 29, Boc-L-Tbg-(αS,β'R')-Azf-L-Ala(3S-2-oxopyrrolidin-3-yl)-H] | 0.027 ± 0.006 µM | 1 µM | 2 µM | > 100 µM | > 50 µM | > 50 µM | > 50 µM | > 50 µM | –
5 | CC(C)[C@H](NC(=O)OC(C)(C)C)C(=O)N1C[C@@H](C)[C@@]1(CC1CCCCC1)C(=O)N[C@H](C#N)C[C@@H]1CCNC1=O [Example 36] | 0.19 ± 0.01 µM | 2 µM | 4 µM | > 100 µM | > 50 µM | > 50 µM | > 50 µM | > 50 µM | –
